Measured values as given in patent US10323001B2, “Compositions for modulating a kinase cascade and methods of use thereof” (Athenex, Inc., priority 2006, dated 2019).
Structures can show the parent of a compound that is named as a salt.

How the values were obtained:
Format in all cases: physicochemical
[1] = Moisture-sorption analysis (Hiden IGAsorp); conditions: for Moisture Sorption Wt % Water @ 90% RH: mesylate
Procedure: Moisture-sorption experiments were performed using a Hiden IGAsorp Moisture Sorption instrument on KX2-391.MSA obtained in accordance with the process of the present invention (Example 4). First, the sample was dried at 0% Relative Humidity (RH) and 25° C. until an equilibrium weight was reached or for a maximum of four hours. The sample was then subjected to an isothermal (25° C.) adsorption scan from 10 to 90% RH in steps of 10%. The sample was allowed to equilibrate to an asymptotic weight at each point for a maximum of four hours. Following adsorption, a desorption scan from 85 to 0% RH (at 25° C.) was run in steps of −10% again allowing a maximum of four hours for equilibration to an asymptotic weight. The sample was then dried for one hour at 80° C. and the resulting solid analyzed by XRPD. […] FIG. 10 depicts percent change of water content as a function of relative humidity for KX2-391.MSA, Form A.
Moisture-sorption experiments were performed using a Hiden IGAsorp Moisture Sorption Instrument on KX2-391.2HCl obtained in accordance with the process of the present invention (Example 3). First, the sample was dried at 0% Relative Humidity (RH) and 25° C. until an equilibrium weight was reached or for a maximum of four hours. The sample was then subjected to an isothermal (25° C.) adsorption scan from 10 to 90% RH in steps of 10%. The sample was allowed to equilibrate to an asymptotic weight at each point for a maximum of four hours. Following adsorption, a desorption scan from 85 to 0% RH (at 25° C.) was run in steps of −10% again allowing a maximum of four hours for equilibration to an asymptotic weight. The sample was then dried for one hour at 80° C. and the resulting solid analyzed by XRPD.

[2] = Humidity chamber hygroscopicity study (salt solution chambers, visual inspection); set-up: key to Observations/Time (hr): FF—Free flowing powder; D—Complete deliquescence of sample observed; CC—Colour change of sample observed; conditions: for XRPD after humidity chamber (compared with XRPD pattern of sponsor lot) / HPLC Assay (% Area Purity) after humidity chamber: up to 120 hr; for HPLC Assay (% Area Purity) after humidity chamber: initial 99.4
Procedure: Further characterization of the hygroscopicity of the mesylate salt was performed using several humidity chambers to cover a range of humidity from 75, 88 to 95% RH. The 75, 88, and 95% RH chambers were prepared with NaCl, BaCl2.2H2O, and Na2HPO4.12 H2O respectively and were equilibrated for 48 hours prior to introducing the samples. Samples were placed into aluminum pans and monitored by visual inspection for up to five days. Table 3 summarizes the observations at 0, 3, 5, 24, 48, 72, 96 and 120 hour time points.
Moisture sorption studies conducted at ambient temperature utilizing salt solution humidity chambers were conducted to evaluate solid stability by visual inspection.

[3] = Stability studies, 2 weeks at elevated temperature and/or relative humidity; conditions: for Form After 2 Weeks (XRPD): initial Form A; for Time to deliquescence: 95% RH, mesylate
Procedure: Stability studies were performed on KX2-391.MSA obtained in accordance with the process of the present invention (Example 4) using the conditions listed in Table 4 to determine the effects of exposure to elevated temperature and/or relative humidity on the crystalline form of KX2-391.MSA, Form A. After 2 weeks, the samples were analyzed by XRPD and HPLC to determine if any form change or degradation had occurred.

[4] = 5 mg/mL DI water dissolution experiment; set-up: key to dissolution state: P—Particulates partially dissolved; D—Particulates fully dissolved; conditions: about 5 mg in 1 mL DI water, magnetic stirring
Procedure: Dissolution experiments were performed on KX2-391 salts to provide a better understanding of the salts interaction in water. This was accomplished using a 5 mg/mL DI water dissolution experiment where 5 mg of each salt was weighed into a vial and 1 mL of DI wather was added. The solution was monitored visually with magnetic stirring over a 20 minute time period to observe the time of dissolution.

[5] = Slurry study (acetone, DI water); conditions: Acetone slurry/RT, one and five days
Procedure: Slurry experiments were performed using acetone and DI water on KX2-391.MSA, Form A. Each vial was filled with approximately 30 mg of KX2-391.MSA, Form A and 0.5 and 1 mL of corresponding solvent, followed by stirring at room temperature for one and five days. The obtained solids were isolated by filtration, dried under vacuum at room temperature, and analyzed by HPLC and XRPD. The initial purity of KX2-391.MSA was 99.4%.

[6] = Pressure and grinding studies
[7] = Slurry studies, 2 weeks at ambient conditions; conditions: for Form After 2 Weeks (XRPD): initial Form A
Excerpt: After 2 weeks slurry at ambient conditions, the solids were isolated and analyzed by XRPD and HPLC. No additional forms were observed by XRPD.

[8] = 40° C./75% RH, accelerated stability chamber
[9] = slurry in Dioxane:water (~0.9:0.1)

hygroscopicity by moisture sorption analysis ([1]; 25° C., adsorption scan 10 to 90% RH): slightly-hygroscopic
water absorbed at 60% RH ([1]; 60% RH, 25° C.): 1.1 wt %
Moisture Sorption Wt % Water @ 90% RH ([1]; 25° C., listed as MSA): 5.7 wt %
Moisture Sorption Wt % Water @ 90% RH ([1]; 25° C.): 5.7 wt %
XRPD pattern of material resulting from the moisture sorption experiment ([1]; after adsorption/desorption scans and drying one hour at 80° C.): consistent with the starting form
Observations/Time (hr) ([2]; 75% RH (NaCl) chamber, 0 hr): FF
Observations/Time (hr) ([2]; 75% RH (NaCl) chamber, 3 hr): FF
Observations/Time (hr) ([2]; 75% RH (NaCl) chamber, 5 hr): FF
Observations/Time (hr) ([2]; 75% RH (NaCl) chamber, 24 hr): FF
Observations/Time (hr) ([2]; 75% RH (NaCl) chamber, 48 hr): FF
Observations/Time (hr) ([2]; 75% RH (NaCl) chamber, 72 hr): FF
Observations/Time (hr) ([2]; 75% RH (NaCl) chamber, 96 hr): FF
Observations/Time (hr) ([2]; 75% RH (NaCl) chamber, 120 hr): FF
XRPD after humidity chamber (compared with XRPD pattern of sponsor lot) ([2]; 75% RH (NaCl) chamber): Consistent
HPLC Assay (% Area Purity) after humidity chamber ([2]; 75% RH (NaCl) chamber): 99.4 % Area Purity
stability in humidity chamber (deliquescence, decomposition by HPLC) ([2]; 75% RH, up to five days): stable
Observations/Time (hr) ([2]; 88% RH (BaCl2•2H2O) chamber, 0 hr): FF
Observations/Time (hr) ([2]; 88% RH (BaCl2•2H2O) chamber, 3 hr): CC
Observations/Time (hr) ([2]; 88% RH (BaCl2•2H2O) chamber, 5 hr): CC
Observations/Time (hr) ([2]; 88% RH (BaCl2•2H2O) chamber, 24 hr): CC
Observations/Time (hr) ([2]; 88% RH (BaCl2•2H2O) chamber, 48 hr): CC
Observations/Time (hr) ([2]; 88% RH (BaCl2•2H2O) chamber, 72 hr): CC
Observations/Time (hr) ([2]; 88% RH (BaCl2•2H2O) chamber, 96 hr): CC
Observations/Time (hr) ([2]; 88% RH (BaCl2•2H2O) chamber, 120 hr): CC
XRPD after humidity chamber (compared with XRPD pattern of sponsor lot) ([2]; 88% RH (BaCl2•2H2O) chamber): Consistent
HPLC Assay (% Area Purity) after humidity chamber ([2]; 88% RH (BaCl2•2H2O) chamber): 89.3 % Area Purity
colour of material after exposure ([2]; 88% RH, up to five days): darker color yellow
degradation by HPLC ([2]; 88% RH, up to five days): roughly 10 % area
deliquescence on exposure to high humidity ([2]; 95% RH): deliquesce within three hours
Observations/Time (hr) ([2]; 95% RH (Na2HPO4•12H2O) chamber, 0 hr): FF
Observations/Time (hr) ([2]; 95% RH (Na2HPO4•12H2O) chamber, 3 hr): D
Observations/Time (hr) ([2]; 95% RH (Na2HPO4•12H2O) chamber, 5 hr): D
Observations/Time (hr) ([2]; 95% RH (Na2HPO4•12H2O) chamber, 24 hr): D
Observations/Time (hr) ([2]; 95% RH (Na2HPO4•12H2O) chamber, 48 hr): D
Observations/Time (hr) ([2]; 95% RH (Na2HPO4•12H2O) chamber, 72 hr): D
Observations/Time (hr) ([2]; 95% RH (Na2HPO4•12H2O) chamber, 96 hr): D
Observations/Time (hr) ([2]; 95% RH (Na2HPO4•12H2O) chamber, 120 hr): D
stability of crystalline form after exposure to the accelerated stability conditions ([3]; 2 weeks, conditions of Table 4): stable crystalline form
HPLC Purity (AUC) after 2 weeks [3, 8]: >99%
Form After 2 Weeks (XRPD) [3, 8]: Form A
HPLC Purity (AUC) after 2 weeks ([3]; 51% RH, saturated salt chamber): >99%
Form After 2 Weeks (XRPD) ([3]; 51% RH, saturated salt chamber): Form A
HPLC Purity (AUC) after 2 weeks ([3]; 60° C./ambient humidity, oven): >99%
Form After 2 Weeks (XRPD) ([3]; 60° C./ambient humidity, oven): Form A
HPLC Purity (AUC) after 2 weeks ([3]; 75% RH, saturated salt chamber): >99%
Form After 2 Weeks (XRPD) ([3]; 75% RH, saturated salt chamber): Form A
HPLC Purity (AUC) after 2 weeks ([3]; 88% RH, saturated salt chamber): >99%
Form After 2 Weeks (XRPD) ([3]; 88% RH, saturated salt chamber): Form A
Time to deliquescence ([3]; saturated salt chamber, listed as KX2-391-MSA): quesced <16 hrs
Time to deliquescence ([3]; saturated salt chamber): less than 16 hrs
dissolution state ([4]; 0 s): P
dissolution state ([4]; 30 s): P
dissolution state ([4]; 1 min): D
HPLC purity after slurry ([5]; initial 99.4%): 99.3%
HPLC Purity (AUC) after 2 weeks slurry ([7]; slurry in 1-butanol): >99%
Form After 2 Weeks (XRPD) ([7]; slurry in 1-butanol): Form A
HPLC Purity (AUC) after 2 weeks slurry [7, 9]: >99%
Form After 2 Weeks (XRPD) [7, 9]: Form A
HPLC Purity (AUC) after 2 weeks slurry ([7]; slurry in IPA): >99%
Form After 2 Weeks (XRPD) ([7]; slurry in IPA): Form A
HPLC Purity (AUC) after 2 weeks slurry ([7]; slurry in MeCN): >99%
Form After 2 Weeks (XRPD) ([7]; slurry in MeCN): Form A
HPLC Purity (AUC) after 2 weeks slurry ([7]; slurry in THF:water (~0.9:0.1)): >99%
Form After 2 Weeks (XRPD) ([7]; slurry in THF:water (~0.9:0.1)): Form A
Compound: O=C(Cc1ccc(-c2ccc(OCCN3CCOCC3)cc2)cn1)NCc1ccccc1 [KX2-391.MSA, 2-(5-(4-(2-morpholinoethoxy)phenyl)pyridine-2-yl)-N-benzylacetamide mesylate]
XRPD of solid after slurry [5]: consistent with the pattern of the initial KX2-391.MSA, Form A
effect of physical stress on the crystalline form [6]: No change in crystalline form was observed
